Measured values published in publication PMC3816002 (Biochimica et biophysica acta, 2013).

Target: T1, CIITA (Homo sapiens, UniProt P33076, G420A/G425A/K426E)
T1 sequence (P33076 1-1130 G420A/G425A/K426E): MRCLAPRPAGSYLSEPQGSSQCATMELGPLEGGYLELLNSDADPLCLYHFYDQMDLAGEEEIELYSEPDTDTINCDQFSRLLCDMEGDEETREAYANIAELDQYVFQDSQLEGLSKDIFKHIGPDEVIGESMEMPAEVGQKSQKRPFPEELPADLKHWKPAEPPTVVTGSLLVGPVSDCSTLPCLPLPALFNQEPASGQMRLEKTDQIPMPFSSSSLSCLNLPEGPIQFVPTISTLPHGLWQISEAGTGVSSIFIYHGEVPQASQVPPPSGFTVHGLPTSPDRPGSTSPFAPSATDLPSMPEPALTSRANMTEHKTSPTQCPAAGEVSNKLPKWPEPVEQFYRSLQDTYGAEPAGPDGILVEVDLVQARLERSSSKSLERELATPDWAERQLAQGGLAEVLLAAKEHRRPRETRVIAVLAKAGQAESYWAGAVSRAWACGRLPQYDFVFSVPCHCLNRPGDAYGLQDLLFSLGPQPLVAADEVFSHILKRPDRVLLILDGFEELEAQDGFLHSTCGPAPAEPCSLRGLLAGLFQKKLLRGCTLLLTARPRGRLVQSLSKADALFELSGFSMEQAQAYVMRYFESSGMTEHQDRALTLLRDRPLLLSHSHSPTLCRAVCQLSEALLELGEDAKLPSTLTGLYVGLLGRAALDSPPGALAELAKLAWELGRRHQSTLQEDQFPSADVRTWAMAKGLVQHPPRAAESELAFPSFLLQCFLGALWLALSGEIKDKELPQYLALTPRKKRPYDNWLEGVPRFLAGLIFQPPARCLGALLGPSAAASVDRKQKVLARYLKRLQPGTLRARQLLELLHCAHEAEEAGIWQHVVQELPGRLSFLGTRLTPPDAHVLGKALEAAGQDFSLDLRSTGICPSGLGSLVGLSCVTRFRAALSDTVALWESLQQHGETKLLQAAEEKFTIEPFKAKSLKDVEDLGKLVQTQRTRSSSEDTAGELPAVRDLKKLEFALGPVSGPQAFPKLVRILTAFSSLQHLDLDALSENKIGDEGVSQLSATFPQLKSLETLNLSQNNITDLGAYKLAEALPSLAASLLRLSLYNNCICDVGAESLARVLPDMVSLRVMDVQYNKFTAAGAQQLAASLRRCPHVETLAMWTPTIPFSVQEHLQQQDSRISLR
Assay: […] autophosphorylation kinase assay, SDS-PAGE, phosphorimager
Format: biochemical
Settings: labelled compound; 5 mM MnCl2, 5 mM MgCl2, pH 7.5, 30 °C

## Nc1ncnc2c1ncn2[C@@H]1O[C@H](COP(=O)(O)OP(=O)(O)OP(=O)(O)O)[C@@H](O)[C@H]1O [ATP]
  32P autophosphorylation kinase assay, SDS-PAGE, phosphorimager: No loss of kinase activity was detected in the putative ATP binding site mutant
